Measurements taken from patent publication US20250115582A1, “MOLECULAR GLUE DEGRADERS AND METHODS OF USING THE SAME” (Monte Rosa Therapeutics, Inc., priority 2022, published 2025).

Legend:
[1] = biological target: CRBN/DDB1 (Homo sapiens, UniProt Q96SW2); test: HTRF binding assay (thalidomide probe displacement from CRBN/DDB1); conditions: CRBN/DDB1 2.5 nM, Cy5-Thalidomide 100 nM, 30 min; geometric mean; read-out: HTRF_Thali_Disp_DR—geo_IC50
Source text: Binding of test compounds to CRBN/DDB1 was monitored in an HTRF assay using 1-[5-({2-[2-(2-{[2-(2,6-dioxopiperidin-3-yl)-1,3-dioxo-2,3-dihydro-1H-isoindol-4-yl]oxy}acetamido)ethoxy]ethyl}carbamoyl)pentyl]-3,3-dimethyl-2-[(1E,3E)-5-[(2E)-1,3,3-trimethyl-5-sulfo-2,3-dihydro-1H-indol-2-ylidene]penta-1,3-dien-1-yl]-3H-indol-1-ium-5-sulfonate as a fluorescent probe. In this assay, compounds displace the fluorescently labeled thalidomide-based probe bound to CRBN and fluorescence is monitored with increasing compound concentration. Assays were conducted in Greiner white 384 well HiBase plates (Cat. No 784075-25) in 10 μL total volume. A one pot detection solution of CRBN/DDB1 (2.5 nM), anti-His Terbium Cryptate Gold (1×, PerkinElmer Cat. #: 61HI2TLB), and Cy5-Thalidomide (100 nM, Tenova Cat.: T52461) was prepared in 20 mM HEPES, 20 mM NaCl, 0.2 mM TCEP, 0.2 mM EDTA, and 0.005% Tween20 was dispensed to each assay plate. Test compounds were stored in dry, ambient temperatures at 10 mM. A 10-point, 1:3 dilution series was prepared from 10 mM stock concentrations in Echo-compatible LDV plates. 10 nL of each compound dilution series was dispensed into assays wells using an Echo 650 (Labcyte inc. USA). 10 nL of 10 mM lenalidomide (Selleckchem Cat no. S1029) was transferred into the active-control wells for the assay and 10 nL of DMSO was transferred into the negative control wells. The assay was then allowed to incubate for 30 min at ambient temperature after transferring the test compounds. Plate measurements were taken on a Pherastar FSX (BMG Labtech, Germany) using the HTRF Red filter (Ex. 337 nm, eml: 620 nm, em2: 665 nm) (Flashes: 50, Integration time: 60-400 μs, Z-height: 10 mm, Ratio-multiplier: 10,000). Analysis, HTRF ratio and IC50 values were derived using KNIME analytics (KNIME Zurich) transformation and fitting within Collaborative Drug Discovery (Collaborative Drug Discovery USA) using a 4-parameter logistic fit. HTRF ratio calculation was performed using the following formula: […]
where em665nm represents the measured emission at 665 nm upon excitation at 337 nm and em620nm the measured emission at 620 nm upon excitation at 337 nm. The 4 parameter logistic fitting model was performed using the following formula: […]
where Y represents the HTRF ratio response (as defined previously), X the compound concentration in μM, Ymin the minimum response plateau, Ymax the maximum response plateau, IC50 the concentration of agonist that gives a response half way between Ymin and Ymax and HillSlope the steepness of the family of curves. No fitting model constraints was applied on Ymin, or Ymax whilst IC50>0 and −0.5>HillSlope>−3
Ki values were derived from the geometric mean of the IC50 values using the Cheng-Prusoff transformation:
where [L] represents the concentration of fluorescent probe in μM, Kd the affinity (binding constant) of the fluorescent probe in units of μM and IC50 the concentration of agonist that gives a response halfway between Ymin and Ymax (as described in 1.2.1)
Analysis and IC50 values were derived using KNIME analytics (KNIME, Zurich) transformation and fitting within Collaborative Drug Discovery (Collaborative Drug Discovery, USA) as described in 1.2.1. Ki values were derived from the geometric mean of the IC50 values using the Cheng-Prusoff transformation as described in 2.2.2. Data was visualized in GraphPad Prism 8.1.2 (GraphPad, USA) and reported as mean and standard deviation. Microsoft Office Excel 2012 (Redmond, WA) was used for calculation of mean and standard deviation.
IC50 data are reported in Table 3 for compounds in Table 1. In Table 3 below, According to the code, A represents a IC50 value of ≤0.1 μM, B represents a IC50 value≥0.1 μM and ≤1 μM, C represents an IC50 value>1 μM.

[2] = biological target: T1, CK1α (Homo sapiens, UniProt P48729+Q96SW2); test: CK1α NanoBiT assay (HiBiT-tagged CSNK1A1 in HEK293 clonal line); format: cell-based; conditions: HEK293 HiBiT-CSNK1A1/LgBiT cells, 24 h incubation, luminescence
T1 construct: HEK293 clonal line with CRISPR KI HiBiT tag on CSNK1A1; host or cells: HEK293 clonal line, CRISPR HiBiT knock-in at CSNK1A1, stably expressing LgBiT
Method: HEK293 clonal line with CRISPR KI HiBiT tag on CSNK1A1 and stably expressing LgBiT protein was obtained from Promega (Madison, WI). Cells were plated at 5000 cells per well using Multiflo (BioTek) in 384-well white solid bottom plates (Corning, 3570BC) in […] volume in DMEM media (DMEM, high glucose, HEPES, no phenol red (ThermoFisher Scientific, 21063029)) containing 10% FBS (Corning, 35-075-CV), 1% Penicillin/Streptomycin ((ThermoFisher Scientific, 15140-122), and 0.2% Endurazine (Nano-Glo Endurazine Live Cell Substrate (Promega, N2571)). Cells were incubated for 16 hours at 37C, 5% CO2. Depending on experiment 25 or 75 nL of a compound at 10 mM were added into the plate using an Echo®650 liquid handler (Labcyte) to achieve final concentration of […] in wells. Cells were incubated at 37° C., 5% CO2 for 24 hours followed by signal was read on Pherastar FSX using “LUM plus” optic module.
Data analysis was performed using Scinamic (Scinamic, Cambridge, MA).
Luminescence response (R) was calculated by the formula: response=100*(S−N)/(P−N), where S is the signal of the well, N and P the mean negative and positive control values, respectively, of the same plate. The luminescence response was then fitted in Scinamic using a 3-parameter agonist logistic fit (hillslope=1, EC50>0, top/bottom unconstrained).
DC50 data are reported in Table 2 for compounds in Table 1. In Table 2 below, According to the code, A represents a DC50 value of ≤0.1 μM, B represents a DC50 value>0.1 μM and ≤1 μM, C represents an DC50 value>1 μM.

T1 sequence (P48729 whole entry): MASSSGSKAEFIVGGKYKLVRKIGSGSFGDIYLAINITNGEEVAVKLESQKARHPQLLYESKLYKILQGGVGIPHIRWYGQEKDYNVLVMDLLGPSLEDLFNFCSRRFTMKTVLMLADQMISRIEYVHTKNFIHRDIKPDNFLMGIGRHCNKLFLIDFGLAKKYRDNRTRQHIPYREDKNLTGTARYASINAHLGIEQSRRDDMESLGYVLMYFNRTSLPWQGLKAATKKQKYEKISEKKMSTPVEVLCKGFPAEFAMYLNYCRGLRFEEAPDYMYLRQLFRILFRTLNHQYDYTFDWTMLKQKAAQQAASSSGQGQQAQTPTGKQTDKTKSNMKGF
T1 sequence (Q96SW2 whole entry): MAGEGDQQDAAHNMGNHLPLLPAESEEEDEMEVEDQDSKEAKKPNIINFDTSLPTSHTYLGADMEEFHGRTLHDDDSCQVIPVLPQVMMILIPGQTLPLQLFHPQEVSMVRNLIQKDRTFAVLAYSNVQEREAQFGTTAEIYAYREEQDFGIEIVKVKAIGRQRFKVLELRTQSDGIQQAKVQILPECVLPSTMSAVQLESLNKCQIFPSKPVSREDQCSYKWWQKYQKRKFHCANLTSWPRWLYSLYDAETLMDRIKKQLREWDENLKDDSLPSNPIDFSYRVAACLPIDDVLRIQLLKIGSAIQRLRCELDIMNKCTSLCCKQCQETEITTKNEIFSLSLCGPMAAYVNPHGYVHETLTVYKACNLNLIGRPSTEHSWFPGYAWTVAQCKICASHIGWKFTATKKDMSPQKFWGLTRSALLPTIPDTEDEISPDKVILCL
T1 sequence (Q16531 2-1140 partner limits assumed): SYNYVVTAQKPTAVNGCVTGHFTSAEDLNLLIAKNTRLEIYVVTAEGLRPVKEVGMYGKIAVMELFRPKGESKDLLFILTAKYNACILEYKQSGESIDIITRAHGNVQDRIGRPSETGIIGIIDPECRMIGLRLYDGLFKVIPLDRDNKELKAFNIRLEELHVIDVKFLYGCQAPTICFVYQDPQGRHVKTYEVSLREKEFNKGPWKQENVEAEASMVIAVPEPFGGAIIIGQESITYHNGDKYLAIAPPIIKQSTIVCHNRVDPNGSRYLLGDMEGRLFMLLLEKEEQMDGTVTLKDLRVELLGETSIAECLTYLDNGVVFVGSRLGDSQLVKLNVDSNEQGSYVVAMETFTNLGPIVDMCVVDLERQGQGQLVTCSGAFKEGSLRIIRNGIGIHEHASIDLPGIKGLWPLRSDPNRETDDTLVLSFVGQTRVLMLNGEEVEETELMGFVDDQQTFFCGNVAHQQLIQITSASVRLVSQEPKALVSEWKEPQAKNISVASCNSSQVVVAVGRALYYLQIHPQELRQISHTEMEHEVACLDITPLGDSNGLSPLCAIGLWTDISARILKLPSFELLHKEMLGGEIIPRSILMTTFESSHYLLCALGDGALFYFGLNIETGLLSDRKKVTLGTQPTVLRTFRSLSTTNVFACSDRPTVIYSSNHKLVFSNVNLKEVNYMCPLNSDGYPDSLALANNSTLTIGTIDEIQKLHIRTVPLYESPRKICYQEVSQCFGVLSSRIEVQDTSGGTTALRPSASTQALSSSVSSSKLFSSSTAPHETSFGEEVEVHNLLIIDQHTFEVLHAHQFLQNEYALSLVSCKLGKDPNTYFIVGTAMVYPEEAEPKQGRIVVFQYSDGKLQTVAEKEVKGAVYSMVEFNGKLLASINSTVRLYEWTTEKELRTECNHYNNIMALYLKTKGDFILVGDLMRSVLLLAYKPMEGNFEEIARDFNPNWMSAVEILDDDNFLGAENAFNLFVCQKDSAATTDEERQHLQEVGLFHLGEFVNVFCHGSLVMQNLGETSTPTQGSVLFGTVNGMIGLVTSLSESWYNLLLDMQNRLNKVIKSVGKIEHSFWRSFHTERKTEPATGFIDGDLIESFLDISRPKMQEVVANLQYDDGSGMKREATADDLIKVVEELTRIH
Sequence of CRBN/DDB1 (Q96SW2 whole entry): as the sequence (Q96SW2 whole entry) above
Sequence of CRBN/DDB1 (Q16531 whole entry partner): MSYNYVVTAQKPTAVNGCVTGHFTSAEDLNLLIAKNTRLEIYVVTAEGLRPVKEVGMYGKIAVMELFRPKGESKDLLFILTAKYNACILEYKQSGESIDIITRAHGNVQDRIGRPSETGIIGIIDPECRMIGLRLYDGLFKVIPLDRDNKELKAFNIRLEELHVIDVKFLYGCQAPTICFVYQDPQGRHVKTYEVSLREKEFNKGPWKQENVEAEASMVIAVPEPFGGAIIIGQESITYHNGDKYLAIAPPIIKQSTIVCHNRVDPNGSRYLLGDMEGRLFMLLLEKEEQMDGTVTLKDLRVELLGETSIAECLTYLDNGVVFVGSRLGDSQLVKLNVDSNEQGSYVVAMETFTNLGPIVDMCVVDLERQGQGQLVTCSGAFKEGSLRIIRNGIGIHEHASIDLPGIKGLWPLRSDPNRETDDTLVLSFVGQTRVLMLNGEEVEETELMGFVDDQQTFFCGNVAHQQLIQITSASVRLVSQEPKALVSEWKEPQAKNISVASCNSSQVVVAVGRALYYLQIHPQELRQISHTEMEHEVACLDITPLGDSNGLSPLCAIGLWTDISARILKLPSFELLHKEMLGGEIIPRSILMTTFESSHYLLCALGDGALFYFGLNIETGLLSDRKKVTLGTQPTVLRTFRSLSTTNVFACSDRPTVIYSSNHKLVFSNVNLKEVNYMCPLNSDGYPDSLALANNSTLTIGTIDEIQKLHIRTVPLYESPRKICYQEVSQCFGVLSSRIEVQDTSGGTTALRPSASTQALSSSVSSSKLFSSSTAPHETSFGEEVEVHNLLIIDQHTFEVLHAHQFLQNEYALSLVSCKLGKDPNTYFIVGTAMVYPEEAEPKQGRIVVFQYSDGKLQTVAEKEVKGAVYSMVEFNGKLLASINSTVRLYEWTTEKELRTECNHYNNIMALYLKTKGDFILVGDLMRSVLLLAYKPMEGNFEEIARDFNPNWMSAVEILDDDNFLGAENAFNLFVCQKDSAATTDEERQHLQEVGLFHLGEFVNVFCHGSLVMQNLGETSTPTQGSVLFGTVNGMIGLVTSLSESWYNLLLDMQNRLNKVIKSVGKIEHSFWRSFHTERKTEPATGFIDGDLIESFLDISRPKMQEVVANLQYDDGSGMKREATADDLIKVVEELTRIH

SMILES: O=C1CCC(N2Cc3cc(NC(=O)c4ccccc4Cl)ccc3C2=O)C(=O)N1 (centres unmarked) [Compound 148]
- IC50 [1]: 100 to 1000 nM
- DC50 [2]: < 0.1 µM

SMILES: O=C1CCC(N2Cc3cc(NC(=O)c4cn(-c5ccccc5)c(C(F)(F)F)n4)ccc3C2=O)C(=O)N1 (centres unmarked) [Compound 156, N-(2-(2,6-dioxopiperidin-3-yl)-1-oxoisoindolin-5-yl)-1-phenyl-2-(trifluoromethyl)-1H-imidazole-4-carboxamide]
- IC50 [1]: 100 to 1000 nM
- DC50 [2]: < 0.1 µM

SMILES: O=C1CCC(N2Cc3cc(N4C(=O)c5ccccc5C4=O)ccc3C2=O)C(=O)N1 (centres unmarked) [Compound 116, 2′-(2,6-dioxopiperidin-3-yl)-[2,5′-biisoindoline]-1,1′,3-trione]
- IC50 [1]: 100 to 1000 nM
- DC50 [2]: > 1 µM

SMILES: O=C1CCC(N2Cc3cc(NC(=O)c4cccc(F)c4)ccc3C2=O)C(=O)N1 (centres unmarked) [Compound 142, N-(2-(2,6-dioxopiperidin-3-yl)-1-oxoisoindolin-5-yl)-3-fluorobenzamide]
- IC50 [1]: 100 to 1000 nM
- DC50 [2]: < 0.1 µM

SMILES: CCc1cc2c(cc1NC(=O)c1ccc(Cl)cc1)CN(C1CCC(=O)NC1=O)C2=O (centres unmarked) [Compound 111, 4-chloro-N-(2-(2,6-dioxopiperidin-3-yl)-6-ethyl-1-oxoisoindolin-5-yl)benzamide]
- IC50 [1]: 100 to 1000 nM
- DC50 [2]: > 1 µM

SMILES: O=C1CCC(N2Cc3cc(NC(=O)c4cccc(C(F)(F)F)c4)ccc3C2=O)C(=O)N1 (centres unmarked) [Compound 125, N-(2-(2,6-dioxopiperidin-3-yl)-1-oxoisoindolin-5-yl)-3-(trifluoromethyl)benzamide]
- IC50 [1]: 100 to 1000 nM
- DC50 [2]: < 0.1 µM

SMILES: O=C1CCC(N2Cc3cc(NC(=O)c4cccc5c4CCC5)ccc3C2=O)C(=O)N1 (centres unmarked) [Compound 129, N-(2-(2,6-dioxopiperidin-3-yl)-1-oxoisoindolin-5-yl)-2,3-dihydro-1H-indene-4-carboxamide]
- IC50 [1]: 100 to 1000 nM
- DC50 [2]: < 0.1 µM

SMILES: COCc1nc(C(=O)Nc2ccc3c(c2)CN(C2CCC(=O)NC2=O)C3=O)cn1-c1ccccc1 (centres unmarked) [Compound 157, N-(2-(2,6-dioxopiperidin-3-yl)-1-oxoisoindolin-5-yl)-2-(methoxymethyl)-1-phenyl-1H-imidazole-4-carboxamide]
- IC50 [1]: ≤ 100 nM
- DC50 [2]: < 0.1 µM

SMILES: Cc1ccccc1C(=O)Nc1ccc2c(c1)CN(C1CCC(=O)NC1=O)C2=O (centres unmarked) [Compound 132, N-(2-(2,6-dioxo-3-piperidyl)-1-oxo-isoindolin-5-yl)-2-methyl-benzamide]
- IC50 [1]: 100 to 1000 nM
- DC50 [2]: 0.1 to 1 µM

SMILES: O=C1CCC(N2Cc3cc(NC(=O)c4ccccn4)ccc3C2=O)C(=O)N1 (centres unmarked) [Compound 133, N-(2-(2,6-dioxopiperidin-3-yl)-1-oxoisoindolin-5-yl)]
- IC50 [1]: 100 to 1000 nM
- DC50 [2]: 0.1 to 1 µM

SMILES: O=C1CCC(N2Cc3cc(NC(=O)c4ccc(F)cc4)ccc3C2=O)C(=O)N1 (centres unmarked) [Compound 126, N-(2-(2,6-dioxopiperidin-3-yl)-1-oxoisoindolin-5-yl)-4-fluorobenzamide]
- IC50 [1]: 100 to 1000 nM
- DC50 [2]: < 0.1 µM

SMILES: COc1cc2c(cc1NC(=O)c1ccc(Cl)cc1)CN(C1CCC(=O)NC1=O)C2=O (centres unmarked) [Compound 110, 4-chloro-N-(2-(2,6-dioxopiperidin-3-yl)-6-methoxy-1-oxoisoindolin-5-yl)benzamide]
- IC50 [1]: 100 to 1000 nM
- DC50 [2]: > 1 µM

SMILES: CC(C)Cc1ccccc1C(=O)Nc1ccc2c(c1)CN(C1CCC(=O)NC1=O)C2=O (centres unmarked) [Compound 134, N-(2-(2,6-dioxopiperidin-3-yl)-1-oxoisoindolin-5-yl)-2-isobutylbenzamide]
- IC50 [1]: 100 to 1000 nM
- DC50 [2]: 0.1 to 1 µM

SMILES: Cn1ccc(C(=O)Nc2ccc3c(c2)CN(C2CCC(=O)NC2=O)C3=O)n1 (centres unmarked) [Compound 106, N-(2-(2,6-dioxopiperidin-3-yl)-1-oxoisoindolin-5-yl)-1-methyl-1H-pyrazole-3-carboxamide]
- IC50 [1]: 100 to 1000 nM
- DC50 [2]: 0.1 to 1 µM

SMILES: O=C1CCC(N2Cc3cc(NC(=O)c4ncccc4Cl)ccc3C2=O)C(=O)N1 (centres unmarked) [Compound 103, 3-chloro-N-(2-(2,6-dioxopiperidin-3-yl)-1-oxoisoindolin-5-yl) picolinamide]
- IC50 [1]: 100 to 1000 nM
- DC50 [2]: 0.1 to 1 µM

SMILES: Cc1ccc(C(=O)Nc2ccc3c(c2)CN(C2CCC(=O)NC2=O)C3=O)cn1 (centres unmarked) [Compound 123, N-(2-(2,6-dioxopiperidin-3-yl)-1-oxoisoindolin-5-yl)-6-methylnicotinamide]
- IC50 [1]: 100 to 1000 nM
- DC50 [2]: 0.1 to 1 µM

SMILES: N#Cc1cccc(C(=O)Nc2ccc3c(c2)CN(C2CCC(=O)NC2=O)C3=O)c1 (centres unmarked) [Compound 136, 3-cyano-N-(2-(2,6-dioxopiperidin-3-yl)-1-oxoisoindolin-5-yl) benzamide]
- IC50 [1]: 100 to 1000 nM
- DC50 [2]: 0.1 to 1 µM

SMILES: COCc1c(C(=O)Nc2ccc3c(c2)CN(C2CCC(=O)NC2=O)C3=O)ncn1-c1ccccc1 (centres unmarked) [Compound 159, N-(2-(2,6-dioxopiperidin-3-yl)-1-oxoisoindolin-5-yl)-5-(methoxymethyl)-1-phenyl-1H-imidazole-4-carboxamide]
- IC50 [1]: 100 to 1000 nM
- DC50 [2]: 0.1 to 1 µM

SMILES: Cc1ccc(C(=O)Nc2ccc3c(c2)CN(C2CCC(=O)NC2=O)C3=O)cc1 (centres unmarked) [Compound 127, N-(2-(2,6-dioxopiperidin-3-yl)-1-oxoisoindolin-5-yl)-4-methylbenzamide]
- IC50 [1]: 100 to 1000 nM
- DC50 [2]: < 0.1 µM

SMILES: O=C1CCC(N2Cc3cc(NC(=O)c4ncccn4)ccc3C2=O)C(=O)N1 (centres unmarked) [Compound 104, N-(2-(2,6-dioxopiperidin-3-yl)-1-oxoisoindolin-5-yl)pyrimidine-2-carboxamide]
- IC50 [1]: 100 to 1000 nM
- DC50 [2]: 0.1 to 1 µM

SMILES: O=C1CCC(N2Cc3cc(NC(=O)c4cnccn4)ccc3C2=O)C(=O)N1 (centres unmarked) [Compound 115, N-(2-(2,6-dioxopiperidin-3-yl)-1-oxoisoindolin-5-yl)pyrazine-2-carboxamide]
- IC50 [1]: 100 to 1000 nM
- DC50 [2]: > 1 µM

SMILES: O=C1CCC(N2Cc3cc(NC(=O)c4ncc[nH]4)ccc3C2=O)C(=O)N1 (centres unmarked) [Compound 107, N-(2-(2,6-dioxopiperidin-3-yl)-1-oxoisoindolin-5-yl)-1H-imidazole-2-carboxamide]
- IC50 [1]: 100 to 1000 nM
- DC50 [2]: 0.1 to 1 µM
